# Columns and labels:
# Experiment in all cases: greenhouse post-emergence herbicidal test
# APESV = assay type: in vivo, Apera spica-venti; details: Apera spica-venti, post-emergence, 480 h, post emergence, read-out: herbicidal activity against APESV found
# Procedure, shortened: (§1)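 Post-emergence greenhouse test: plants in loamy sand, sprayed at 1–15 cm height with aqueous spray liquor from 10% emulsion concentrates, kept at 10-25 °C or 20-35 °C by species. Damage scored 0–100 (100 = complete destruction), usually 20 days after treatment. Expected additive effect E from Colby: E=X+Y−(X·Y/100).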
# ALOMY = assay type: in vivo, Alopecurus myosuroides; details: Alopecurus myosuroides, post-emergence, 480 h, post emergence, read-out: herbicidal activity against ALOMY found
# Procedure, shortened: as §1
# ABUTH = assay type: in vivo, Abutilon theophrast; parameters: key to herbicidal activity against ABUTH found: rating on a scale from 0 to 100; details: post emergence
# Procedure, shortened: as §1
# MATCH = assay type: in vivo, Matricaria recutita; parameters: key to herbicidal activity against MATCH found: rating on a scale from 0 to 100; details: post emergence
# Procedure, shortened: as §1
# IPOHE = assay type: in vivo, Ipomoea hederacea; details: Ipomoea hederacea, post-emergence, 480 h, B.32 alone 6 g/ha a.i., post emergence; read-out: herbicidal activity against IPOHE found
# Procedure, shortened: as §1
# AMBEL = assay type: in vivo, Ambrosia artemisiifolia; parameters: key: rating on a scale from 0 to 100
# Method: (§2) The culture containers used were plastic pots containing medium loamy sand with approximately 4.6% of humus and 69.9% sand as substrate. The seeds of the test plants were sown separately for each species.
# (§3) For the post-emergence treatment, the test plants were grown to a plant height of from 1 to 15 cm, depending on the plant habit, and only then treated with the active compounds which had been suspended or emulsified in water. To this end, the test plants were either sown directly, and grown in the same containers, or they were first grown separately as seedlings and transplanted into the test containers a few days prior to treatment.
# (§4) Depending on the species, the plants were kept at 10-25° C. and 20-35° C., respectively.
# (§5) The test period extended over 1 to 3 weeks. During this time, the plants were tended and their response to the individual treatments was evaluated 20 days after treatment except mentioned otherwise.
# (§6) Evaluation was carried out using a scale from 0 to 100. 100 means no emergence of the plants, or complete destruction of at least the above-ground parts, and 0 means no damage or normal course of growth.
# (§7) The respective stated components A and B, and, if appropriate, C, were formulated as a 10% by weight strength emulsion concentrate and, with addition of the amount of solvent system, introduced into the spray liquor used for applying the active compound. In the examples, the solvent used was water.
# (§8) In the examples below, using the method of S. R. Colby (1967) “Calculating synergistic and antagonistic responses of herbicide combinations”, Weeds 15, p. 22 ff., the value E, which is expected if the activity of the individual active compounds is only additive, was calculated. E=X+Y−(X·Y/100)
# POLCO = assay type: in vivo, Polygonum convolvulus; details: Fallopia convolvulus, post-emergence, 480 h, B.32 alone 3 g/ha a.i., post emergence; read-out: herbicidal activity against POLCO found
# Procedure, shortened: as §1
# CHEAL = assay type: in vivo, Chenopodium album
# Method: as §2, §3, §4, §5, §6, §7, §8
# GALAP = assay type: in vivo, Galium aparine; parameters: key to herbicidal activity against GALAP found: rating on a scale from 0 to 100; details: post emergence, 20 days after treatment
# Procedure, shortened: as §1
# ERICA = assay type: in vivo, Conyza canadensis; parameters: key to herbicidal activity against ERICA found: rating on a scale from 0 to 100; details: post emergence
# Procedure, shortened: as §1
# CONAR = assay type: in vivo, Convolvulus arvensis; parameters: key: rating on a scale from 0 to 100
# Method: as §2, §3, §4, §5, §6, §7, §8
# ECHCG = assay type: in vivo, Echinochloa crus-galli; details: Echinochloa crus-galli, post-emergence, 480 h, single active, 100 g/ha a.i., post emergence; read-out: herbicidal activity against ECHCG found
# Procedure, shortened: as §1
# [1] = a.i. g/ha: I.1 31.25, B.69 25, 20 days after treatment
# [2] = a.i. g/ha: I.1 62.5, B.69 25, 20 days after treatment
structure (smiles),measurement,setting,value
"Cc1cnc(C2=NC(=O)C(C)(C(C)C)N2)c(C(=O)O)c1 (stereo not shown) [B.32, imazapic]",pest or weed control at 3 g/ha,APESV; B.32 alone 3 g/ha a.i.,65%
same,pest or weed control at 6 g/ha,APESV; B.32 alone 6 g/ha a.i.,80%
same,pest or weed control at 3 g/ha,ALOMY; B.32 alone 3 g/ha a.i.,25%
same,pest or weed control at 6 g/ha,"ABUTH; Abutilon theophrasti, post-emergence, 480 h, B.32 alone 6 g/ha a.i., read-out: herbicidal activity against ABUTH found",85%
same,pest or weed control at 3 g/ha,"MATCH; Matricaria chamomilla, post-emergence, 480 h, B.32 alone 3 g/ha a.i., read-out: herbicidal activity against MATCH found",0%
same,pest or weed control at 6 g/ha,"MATCH; Matricaria chamomilla, post-emergence, 480 h, B.32 alone 6 g/ha a.i., read-out: herbicidal activity against MATCH found",30%
same,pest or weed control at 6 g/ha,IPOHE,75%
same,herbicidal activity against AMBEL found,AMBEL; B.32 alone 3 g/ha a.i.,0
same,herbicidal activity against AMBEL found,AMBEL; B.32 alone 6 g/ha a.i.,65
same,pest or weed control at 3 g/ha,POLCO,85%
"N#Cc1cc(Br)c(O)c(Br)c1 [B.69, bromoxynil]",herbicidal activity against CHEAL found,CHEAL; [1],60%
same,herbicidal activity against CHEAL found,CHEAL; [2],60%
same,herbicidal activity against ABUTH found,ABUTH; [2],35%
same,herbicidal activity against MATCH found,MATCH; [1],0%
same,herbicidal activity against GALAP found,"GALAP; a.i. g/ha: I.1 62.5, B.69 25",50%
same,herbicidal activity against ERICA found,ERICA; [2],30%
same,herbicidal activity against CONAR found,CONAR; [1],50%
same,herbicidal activity against CONAR found,CONAR; [2],50%
"CCNc1nc(Cl)nc(NC(C)(C)C)n1 [B.82, terbuthylazine]",herbicidal activity against CHEAL found,"CHEAL; a.i. g/ha: I.1 62.5, B.82 31.25, 20 days after treatment",65%
same,herbicidal activity against GALAP found,"GALAP; a.i. g/ha: I.1 62.5, B.82 31.25",55%
"CCOc1cc(Oc2ccc(C(F)(F)F)cc2Cl)ccc1[N+](=O)[O-] [B.91, oxyfluorfen]",pest or weed control at 100 g/ha,"ALOMY; single active, 100 g/ha a.i.",85%
same,pest or weed control at 100 g/ha,ECHCG,60%
same,herbicidal activity against AMBEL found,"AMBEL; single active, 100 g/ha a.i.",70
same,pest or weed control at 100 g/ha,"ERICA; Erigeron canadensis, post-emergence, 480 h, single active, 100 g/ha a.i., read-out: herbicidal activity against ERICA found",0%
same,pest or weed control at 200 g/ha,"ERICA; Erigeron canadensis, post-emergence, 480 h, single active, 200 g/ha a.i., read-out: herbicidal activity against ERICA found",90%
